# System: IFNγ-induced NO production in RAW264.7
# Test: Suppression of IFNγ-induced NO production in RAW264.7 mouse macrophages (Griess reagent, normalized to WST-1 cell viability)
# Assay type: cell-based
# Details: RAW264.7 cells, 2 h pre-treatment with drug (0-200 nM), then IFNγ for 24 h
# Protocol: Nitric Oxide Production and Cell Viability. […] On the next day, cells were pre-treated with DMSO or drug (0-200 nM dose range) for 2 hours, and then treated with recombinant mouse IFNγ (R&D Systems) for 24 hours. Nitric Oxide concentration in media was determined using the Griess reagent system (Promega). Cell viability was determined using WST-1 reagent (Roche). IC50 values were determined based on the suppression of IFNγ induced Nitric Oxide production normalized to cell viability.
row,Structure (SMILES),IC50
1,C[C@@H]1C(=O)C(C#N)=C[C@]2(C)C3=CC(=O)[C@@H]4[C@@H]5CC(C)(C)CC[C@]5(NC(=O)C5CCC5)CC[C@@]4(C)[C@]3(C)CC[C@@H]12 [TX63863],1.8 nM
2,CCNC(=O)[C@]12CCC(C)(C)C[C@H]1[C@H]1C(=O)C=C3[C@@]4(C)C=C(C#N)C(=O)C(C)=C4CC[C@@]3(C)[C@]1(C)CC2 [TX63597],> 25 nM
3,C[C@@H]1C(=O)C(C#N)=C[C@]2(C)[C@H]3CC(=O)[C@@H]4[C@@H]5CC(C)(C)CC[C@]5(C(=O)n5ccnc5)CC[C@@]4(C)[C@]3(C)CC[C@@H]12 [TX63811],0.3 nM
4,C[C@@H]1C(=O)C(C#N)=C[C@]2(C)C3=CC(=O)[C@@H]4[C@@H]5CC(C)(C)CC[C@]5(CCC(=O)N5CCCC5)CC[C@@]4(C)[C@]3(C)CC[C@@H]12 [TX63893],0.5 nM
5,CCOC(=O)[C@]12CCC(C)(C)C[C@H]1[C@@]1(O)C(=O)C=C3[C@@]4(C)C=C(C#N)C(=O)[C@@H](C)[C@@H]4CC[C@@]3(C)[C@]1(C)CC2 [TX63901],1.3 nM
6,C[C@@H]1C(=O)C(C#N)=C[C@]2(C)C3=CC(=O)[C@@H]4[C@@H]5CC(C)(C)CC[C@]5(C(=O)NNC=O)CC[C@@]4(C)[C@]3(C)CC[C@@H]12 [TX63785],20 nM
7,COCC(=O)NNC(=O)[C@]12CCC(C)(C)C[C@H]1[C@H]1C(=O)C=C3[C@@]4(C)C=C(C#N)C(=O)[C@@H](C)[C@@H]4CC[C@@]3(C)[C@]1(C)CC2 [TX63784],7.5 nM
8,C=C1C(=O)C(C#N)=C[C@]2(C)C3=CC(=O)[C@@H]4[C@@H]5CC(C)(C)CC[C@]5(C(=O)OC)CC[C@@]4(C)[C@]3(C)CC[C@@H]12 [TX63911],10 nM
9,COC(=O)[C@]12CCC(C)(C)C[C@H]1[C@H]1C(=O)C=C3[C@@]4(C)C=C(I)C(=O)[C@@H](C)[C@@H]4CC[C@@]3(C)[C@]1(C)CC2 [TX63833],88 nM
10,CC(=O)N[C@]12CCC(C)(C)C[C@H]1[C@H]1C(=O)C=C3[C@@]4(C)C=C(C#N)C(=O)[C@@H](C)[C@@H]4CC[C@@]3(C)[C@]1(C)CC2 [TX63622],3.8 nM
11,C[C@@H]1C(=O)C(C#N)=C[C@]2(C)C3=CC(=O)[C@@H]4[C@@H]5CC(C)(C)CC[C@]5(COC(=O)CN)CC[C@@]4(C)[C@]3(C)CC[C@@H]12 [TX63717],0.6 nM
12,CSCOC[C@]12CCC(C)(C)C[C@H]1[C@H]1C(=O)C[C@@H]3[C@@]4(C)C=C(C#N)C(=O)[C@@H](C)[C@@H]4CC[C@@]3(C)[C@]1(C)CC2 [TX63859],14.6 nM
13,CCNC(=O)OCCC[C@]12CCC(C)(C)C[C@H]1[C@H]1C(=O)C=C3[C@@]4(C)C=C(C#N)C(=O)[C@@H](C)[C@@H]4CC[C@@]3(C)[C@]1(C)CC2 [TX63982],3.5 nM
14,C[C@@H]1C(=O)C(C#N)=C[C@]2(C)C3=CC(=O)[C@@]4(C)[C@@H]5CC(C)(C)CC[C@]56CC[C@]4(OC6=O)[C@]3(C)CC[C@@H]12 [TX63556],69 nM
15,C[C@@H]1C(=O)C(C#N)=C[C@]2(C)[C@H]3CC(=O)[C@@H]4[C@@H]5CC(C)(C)CC[C@]5(COCF)CC[C@@]4(C)[C@]3(C)CC[C@@H]12 [TX63860],4.1 nM
16,COC(=O)N[C@]12CCC(C)(C)C[C@H]1[C@H]1C(=O)C=C3[C@@]4(C)C=C(C#N)C(=O)[C@@H](C)[C@@H]4CC[C@@]3(C)[C@]1(C)CC2 [TX63693],1.4 nM
17,C[C@@H]1C(=O)C(C#N)=C[C@]2(C)C3=CC(=O)[C@]4(O)[C@@H]5CC(C)(C)CC[C@]5(CO)CC[C@@]4(C)[C@]3(C)CC[C@@H]12 [TX63908],0.6 nM
18,CCCCNC(=O)[C@]12CCC(C)(C)C[C@H]1[C@H]1C(=O)C[C@@H]3[C@@]4(C)C=C(C#N)C(=O)[C@@H](C)[C@@H]4CC[C@@]3(C)[C@]1(C)CC2 [TX63843],10.9 nM
19,CC(=O)OCCC[C@]12CCC(C)(C)C[C@H]1[C@H]1C(=O)C=C3[C@@]4(C)C=C(C#N)C(=O)[C@@H](C)[C@@H]4CC[C@@]3(C)[C@]1(C)CC2 [TX63920],0.9 nM

# Source: patent US9290536B2, “C4 monomethyl triterpenoid derivatives and methods of use thereof” (Reata Pharmaceuticals, Inc., priority 2011, dated 2016)
